Assays:
Type in all cases: cell-based
PepT1 = target: T1, PepT1 (Homo sapiens, UniProt P46059); assay: PepT1 transporter-mediated cellular uptake (substrate test); details: uptake 3 min, 37° C.
T1 construct: expressed in transfected cells
T1 sequence (P46059 1-708): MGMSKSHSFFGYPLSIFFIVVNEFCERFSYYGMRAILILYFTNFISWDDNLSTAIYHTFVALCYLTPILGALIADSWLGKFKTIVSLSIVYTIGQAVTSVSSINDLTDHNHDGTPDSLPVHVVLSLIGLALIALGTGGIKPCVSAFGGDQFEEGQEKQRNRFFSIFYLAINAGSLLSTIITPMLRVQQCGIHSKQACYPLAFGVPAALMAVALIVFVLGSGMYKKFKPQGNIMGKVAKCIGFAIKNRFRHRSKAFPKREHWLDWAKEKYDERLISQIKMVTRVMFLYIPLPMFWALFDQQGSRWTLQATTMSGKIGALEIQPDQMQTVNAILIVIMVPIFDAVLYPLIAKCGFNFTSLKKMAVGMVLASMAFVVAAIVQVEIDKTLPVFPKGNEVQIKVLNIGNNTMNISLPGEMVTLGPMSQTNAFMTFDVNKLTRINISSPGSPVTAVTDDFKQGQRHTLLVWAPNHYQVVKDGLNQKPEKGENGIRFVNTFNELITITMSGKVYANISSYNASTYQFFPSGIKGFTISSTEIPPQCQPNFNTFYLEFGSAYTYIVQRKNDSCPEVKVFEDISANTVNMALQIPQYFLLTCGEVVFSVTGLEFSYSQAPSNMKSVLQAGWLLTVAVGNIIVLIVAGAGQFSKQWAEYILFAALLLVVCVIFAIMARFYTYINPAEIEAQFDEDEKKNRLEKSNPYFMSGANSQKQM
Procedure: DMSO (0.5%) was the solvent control (SC) and the known inhibitor for the positive control (PC) was losartan (200 μM). Data were fit to either the Michaelis-Menten equation for uptake or the Hill equation for inhibition using the solvent control to define the top and the positive control inhibitor to define the bottom. Symbols represent the mean±SEM, n=3.
(§1) Human OAT1 (SLC22A6) and OAT3 (SLC22A8) overexpressing HEK-293 cells and control cells without transfected transporter (Corning® TransportoCells™) are plated to 24-well plates and cellular uptake of 10 to 100 μg/mL of a Compound of the Disclosure is measured in the absence and presence of transporter inhibitors. Uptake of a Compound of the Disclosure into control cells is measured only without chemical inhibitors. […] Cells are grown in DMEM (Gibco 4196, high glucose, without sodium pyruvate) supplemented with MEM non-essential amino acids and 10% fetal bovine serum. Cells are re-fed with fresh medium after attachment (4-6 hours post-seeding). Cell are plated at a density of 4×10^5/well in 24-well plates coated with poly-D-lysine. Transporter assays are conducted in 400 μL of HBSS supplemented with 10 mM Hepes, pH 7.4
The known probe substrates used as positive controls are 3 μM chlorothiazide for OAT1, 2 μM estrone-3-sulfate for OAT3, 10 μM gabapentin for LAT1, 50 μM Gly-Sar for PepT1, 500 μM thiophene-2-glyoxylic acid for MCT1. […]

OAT1 (SLC22A6) [1] = target: T2, OAT1 (SLC22A6) (Homo sapiens, UniProt Q4U2R8); assay: OAT1 transporter-mediated cellular uptake (substrate test); details: uptake 5 min, 37° C.
T2 construct: host or cells: HEK-293
T2 sequence (Q4U2R8 1-563): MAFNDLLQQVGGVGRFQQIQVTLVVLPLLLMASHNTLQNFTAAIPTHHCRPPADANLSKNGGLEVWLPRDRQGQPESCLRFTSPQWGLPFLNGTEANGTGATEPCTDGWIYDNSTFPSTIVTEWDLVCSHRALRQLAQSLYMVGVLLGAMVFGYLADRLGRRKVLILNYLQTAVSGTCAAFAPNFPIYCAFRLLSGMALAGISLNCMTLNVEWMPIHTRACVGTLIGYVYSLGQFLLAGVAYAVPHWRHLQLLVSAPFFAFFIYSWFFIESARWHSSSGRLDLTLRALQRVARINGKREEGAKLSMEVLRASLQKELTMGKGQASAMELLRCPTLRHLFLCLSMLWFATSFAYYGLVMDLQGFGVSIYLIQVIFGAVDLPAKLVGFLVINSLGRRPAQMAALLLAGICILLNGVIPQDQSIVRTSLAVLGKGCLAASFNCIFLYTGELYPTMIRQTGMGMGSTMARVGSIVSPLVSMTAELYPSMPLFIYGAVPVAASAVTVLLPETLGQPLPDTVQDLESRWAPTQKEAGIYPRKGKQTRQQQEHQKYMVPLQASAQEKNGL
Procedure: (§2) DMSO (0.5%) was the solvent control (SC) and the known inhibitor diclofenac (100 μM) was the positive control (PC). Data were fit to either the Michalis-Menten equation for uptake or the Hill equation for inhibition using the solvent control to define the top and the positive control inhibitor to define the bottom. Symbols represent the mean±SEM, n=3.
as §1, with “7.4 […]” for “7.4”
Enzyme kinetic data for uptake and metabolism of a Compound of the Disclosure is analysed by fitting the Michaelis-Menten equation to the data. […]

OAT1 (SLC22A6) [2] = target: T2, OAT1 (SLC22A6); assay: Inhibition of OAT1 uptake of known substrate chlorothiazide; details: probe substrate chlorothiazide 3 μM
Procedure: as §2
as §1, with “7.4 […]” for “7.4”
The IC50 value for the test item is determined by fitting the Hill equation in the following form: […]

CC(=O)N[C@@H](CC(C)C)C(=O)O [N-acetyl-L-leucine]
substrate of PepT1 (uptake) (PepT1): not a substrate
substrate of OAT1 (uptake) (OAT1 (SLC22A6) [1]): substrate
IC50 (OAT1 (SLC22A6) [2]): 6.2 mM
